The source of these data is paper PMC3462775 (PLoS ONE, 2012).

In brackets after ≈: the same amount, converted by molar mass. Bridge positions count the residues as written; N and C are the ends. Square brackets hold non-standard residues; d marks the D form. Peptide text beside a SMILES is read from it. I, II: the chains in the order shown. βAla = NCCC(=O)O Where only a bound is given, the exact number is not on record here.

For one series, the system named is S.epidermidis ATCC 14990. Put plainly: MIC, standard microdilution assay. The conditions noted are these: Reference strain, wild type; CLSI microdilution, cation-supplemented Mueller-Hinton broth, 5x10^4 CFU/well, 18–20 h at 37°C, triplicate. The series is classed as cell-based, Staphylococcus epidermidis. As for the experimental part:
(§1) MICs were determined using a standard microdilution assay as recommended by the Clinical and Laboratory Standards Institute. Assays were performed in triplicate using cation-supplemented Mueller-Hinton (MH) broth (Becton Dickinson, Franklin Lakes, NJ, USA) and a bacterial inoculum of 5x10^4 CFU/well, in a final volume of 100 µl. The tested concentrations ranged from 0.1 µM to 24 µM for both peptides. Results were recorded after 18–20 h of incubation at 37°C.

A further series relates to S.aureus USA 300. It counts as cell-based, Staphylococcus aureus. As for the experimental part: as §1
A further series has as its system S.aureus 3851. The series is classed as cell-based, Staphylococcus aureus. As for the experimental part:
as §1

The target in series [1] is T1, Pseudomonas aeruginosa elastase (Pseudomonas aeruginosa, UniProt P14756).
T1 construct: purchased Calbiochem
T1 sequence (P14756 198-498): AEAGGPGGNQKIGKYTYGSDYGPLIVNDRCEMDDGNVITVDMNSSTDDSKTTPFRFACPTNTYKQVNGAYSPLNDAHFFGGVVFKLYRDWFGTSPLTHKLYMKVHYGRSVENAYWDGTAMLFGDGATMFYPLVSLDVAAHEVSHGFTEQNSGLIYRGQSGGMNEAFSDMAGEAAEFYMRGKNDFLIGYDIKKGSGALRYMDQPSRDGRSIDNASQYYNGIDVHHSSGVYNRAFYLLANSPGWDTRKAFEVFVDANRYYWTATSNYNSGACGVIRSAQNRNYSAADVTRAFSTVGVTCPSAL
The series is classed as in vitro ADME. The settings on record: 1 mM CaCl2 pH 7.8, 37°C; for stability to elastase (in words): HPLC and MS. As for the experimental part: (§2) Tetrabranched M33-L or M33-D peptides (300 µg) were incubated at 37°C with Staphylococcus aureus aureolysin (3 µg, BioCol GmbH) or Pseudomonas aeruginosa elastase (3 µg, Calbiochem) in 300 µl 20 mM Tris-HCl, 1 mM CaCl2 pH 7.8. At indicated time intervals, 50 µl aliquots were removed, diluted with 950 µl of 0.1% trifluoroacetic acid (TFA)/water and analyzed by HPLC and mass spectrometry. Liquid chromatography was performed on Phenomenex Jupiter C18 analytical column (300 Å, 5 µm, 250×4.6 mm) in a 30 min gradient, using TFA 0.1%/water as solvent A and methanol as solvent B. Mass spectrometry analysis was performed on withdrawn samples and repeated on HPLC-eluted peaks with a Bruker Daltonic ultraflex MALDI TOF/TOF mass spectrometer.

For series [2], the target named is T2, Staphylococcus aureus aureolysin (Staphylococcus aureus, UniProt P81177).
T2 construct: purchased BioCol GmbH
T2 sequence (P81177 209-509): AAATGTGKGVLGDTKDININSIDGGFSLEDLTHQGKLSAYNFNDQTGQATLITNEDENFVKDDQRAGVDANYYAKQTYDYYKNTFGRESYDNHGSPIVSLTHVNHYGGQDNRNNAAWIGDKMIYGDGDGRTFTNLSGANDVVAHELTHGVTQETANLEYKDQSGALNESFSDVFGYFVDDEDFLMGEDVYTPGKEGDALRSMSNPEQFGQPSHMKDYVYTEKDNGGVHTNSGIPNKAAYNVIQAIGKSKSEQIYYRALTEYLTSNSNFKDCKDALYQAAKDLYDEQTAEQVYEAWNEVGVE
It counts as in vitro ADME. The settings on record: 1 mM CaCl2 pH 7.8, 37°C; for time of stability / degradation on incubation with aureolysin: 300 µg peptide + 3 µg S. aureus aureolysin in 300 µl 20 mM Tris-HCl, HPLC and MALDI MS read-out. As for the experimental part: as §2

A short description of series [3]: Calcein release from liposomes mimicking the membrane of S. aureus. The settings on record: CL/PG 4∶6 liposomes, 50 µM lipid, 10 min at 20°C, peptide 0,5 to 15 µM, fluorescence 490/517 nm, three independent experiments. The text has this:
To investigate interaction of peptides M33-D and M33-L with the bacterial membrane, including possible perturbation, we used vesicles with two lipid compositions to mimic the membrane of S. aureus (CL/PG, 4∶6 mol/mol) and E. coli (PE/PG, 7∶3 mol/mol). […] The peptide-induced effect was dose-dependent in both vesicle lipid compositions. […] No significant differences in the effects induced by M33-D and M33-L were evident, although the D peptide seemed slightly more efficient towards CL/PG liposomes at doses above 8 µM. […] The greater perturbing effect of both forms of M33 on PE/PG vesicles, compared to vesicles containing cardiolipin, was evident.
Calcein-loaded liposomes of two different composition (PE/PG, 7∶3 mol/mol and CL/PG, 4∶6 mol/mol) were prepared as follows. […] Lipid concentration of vesicles was measured by the method of Stewart and the final concentration used for all measurements was 50 µM. Calcein fluorescence in the vesicles is self-quenched and leakage was measured by relief of quenching; the measurements were carried out at 517 nm, exciting at 490 nm, with a Perkin-Elmer LS 50B spectrofluorimeter. […] Leakage was calculated by the equation: [drawing 1] where F and Ft are fluorescence […] addition of detergent and F0 the fluorescence of intact vesicles.

Series [4] deals with P. aeruginosa ATCC 27853 biofilm. The series is classed as cell-based, Pseudomonas aeruginosa. The conditions noted are these: ATCC 27853, 2 h. As for the experimental part: Biofilm formation was performed by adapting the procedure described in [39] using the Calgary Biofilm Device (Innovotech, Innovotech Inc. Edmonton, Canada). Briefly, 96-well plates containing the bacterial inoculum were sealed with lids bearing 96 pegs on which the biofilm could build up. The plates were placed in an orbital incubator at 35°C (for P. aeruginosa and E. coli) or 37°C (for S. aureus) for 20 h under agitation at 125 rpm. Once biofilms formed, the lids were removed from the plates and the pegs were rinsed twice with phosphate buffered saline (PBS) to remove planktonic cells. The peg-lid was then transferred to a 96-well challenge microtiter plate, each well containing 200 µl of a twofold serial dilution of each peptide in LB medium. The challenge plate was incubated at 37°C for 2 hours. Peptide activity on pre-formed biofilm was evaluated by two independent methods: (i) visual observation of bacterial growth and (ii) counting of living bacterial cells after peptide treatment. In the first case, the peg-lid was removed from the challenge plate, rinsed with PBS and used to cover a 96-well recovery microtiter plate, each well containing 200 µl LB medium. […] Colony forming units (CFU) were expressed as percentage with respect to control (peptide-untreated biofilms). […]

Where [5] appears, read: 300 µg peptide + 3 µg P. aeruginosa elastase, 20 mM Tris-HCl.

One may read the MIC as the least concentration at which growth counts as inhibited. Higher therefore signals weaker potency. As for `CC[C@H](C)[C@H](NC(=O)[C@H](CCCCN)NC(=O)[C@@H](N)CCCCN)C(=O)N[C@@H](CCCNC(=N)N)C(=O)N[C@H](C(=O)N[C@@H](CCCNC(=N)N)C(=O)N[C@@H](CC(C)C)C(=O)N[C@@H](CO)C(=O)N[C@@H](C)C(=O)NCCCC[C@H](NC(=O)[C@H](C)NC(=O)[C@H](CO)NC(=O)[C@H](CC(C)C)NC(=O)[C@H](CCCNC(=N)N)NC(=O)[C@@H](NC(=O)[C@H](CCCNC(=N)N)NC(=O)[C@@H](NC(=O)[C@H](CCCCN)NC(=O)[C@@H](N)CCCCN)[C@@H](C)CC)C(C)C)C(=O)NCCCC[C@H](NC(=O)[C@H](CCCCNC(=O)[C@H](C)NC(=O)[C@H](CO)NC(=O)[C@H](CC(C)C)NC(=O)[C@H](CCCNC(=N)N)NC(=O)[C@@H](NC(=O)[C@H](CCCNC(=N)N)NC(=O)[C@@H](NC(=O)[C@H](CCCCN)NC(=O)[C@@H](N)CCCCN)[C@@H](C)CC)C(C)C)NC(=O)[C@H](C)NC(=O)[C@H](CO)NC(=O)[C@H](CC(C)C)NC(=O)[C@H](CCCNC(=N)N)NC(=O)[C@@H](NC(=O)[C@H](CCCNC(=N)N)NC(=O)[C@@H](NC(=O)[C@H](CCCCN)NC(=O)[C@@H](N)CCCCN)[C@@H](C)CC)C(C)C)C(=O)NCCC(=O)O)C(C)C` [M33-L] (I: H-KKIRVRLSAKK[βAla]-OH / II: H-KKIRVRLSAK / III: H-KKIRVRLSA / IV: H-KKIRVRLSA; amide I:10-IV:C, I:11-II:C, II:10-III:C; N-terminus assumed), the MIC against S.epidermidis ATCC 14990 is on record as 1.5 µM (≈ 7.02 µg/mL); against S.aureus USA 300, 6 µM (≈ 28.1 µg/mL); in the series on S.aureus 3851 it was 12 µM (≈ 56.2 µg/mL). In addition, the “stability to elastase (in words)” value in series [1] (setting [5]) is “poorly stable”. Moreover, the “stability after 5 h incubation with elastase (in words)” value in series [1] (5 h, 300 µg peptide + 3 µg P. aeruginosa elastase, 20 mM Tris-HCl, HPLC peak of intact peptide still present) was “moderate peptide stability”. For the same molecule, in series [2], the “time of stability / degradation on incubation with aureolysin” value is recorded as not above 1 h. In series [2] (300 µg peptide + 3 µg S. aureus aureolysin, 20 mM Tris-HCl, HPLC and MS), the “stability to aureolysin (in words)” value was “not at all stable”. Also, the “peptide concentration giving maximum calcein release” value in series [3] is on record as “greater than 10 µM”. The “Minimum bactericidal concentration on biofilm (MBCb)” value in series [4] worked out at 6 µM (≈ 28.1 µg/mL).
In the case of `CC[C@@H](C)[C@@H](NC(=O)[C@@H](CCCCN)NC(=O)[C@H](N)CCCCN)C(=O)N[C@H](CCCNC(=N)N)C(=O)N[C@@H](C(=O)N[C@H](CCCNC(=N)N)C(=O)N[C@H](CC(C)C)C(=O)N[C@H](CO)C(=O)N[C@H](C)C(=O)NCCCC[C@H](NC(=O)[C@@H](C)NC(=O)[C@@H](CO)NC(=O)[C@@H](CC(C)C)NC(=O)[C@@H](CCCNC(=N)N)NC(=O)[C@H](NC(=O)[C@@H](CCCNC(=N)N)NC(=O)[C@H](NC(=O)[C@@H](CCCCN)NC(=O)[C@H](N)CCCCN)[C@H](C)CC)C(C)C)C(=O)NCCCC[C@H](NC(=O)[C@H](CCCCNC(=O)[C@@H](C)NC(=O)[C@@H](CO)NC(=O)[C@@H](CC(C)C)NC(=O)[C@@H](CCCNC(=N)N)NC(=O)[C@H](NC(=O)[C@@H](CCCNC(=N)N)NC(=O)[C@H](NC(=O)[C@@H](CCCCN)NC(=O)[C@H](N)CCCCN)[C@H](C)CC)C(C)C)NC(=O)[C@@H](C)NC(=O)[C@@H](CO)NC(=O)[C@@H](CC(C)C)NC(=O)[C@@H](CCCNC(=N)N)NC(=O)[C@H](NC(=O)[C@@H](CCCNC(=N)N)NC(=O)[C@H](NC(=O)[C@@H](CCCCN)NC(=O)[C@H](N)CCCCN)[C@H](C)CC)C(C)C)C(=O)NCCC(=O)O)C(C)C` [M33-D] (I: H-[dK][dK][dI][dR][dV][dR][dL][dS][dA]KK[βAla]-OH / II: H-[dK][dK][dI][dR][dV][dR][dL][dS][dA]K / III: H-[dK][dK][dI][dR][dV][dR][dL][dS][dA] / IV: H-[dK][dK][dI][dR][dV][dR][dL][dS][dA]; amide I:10-IV:C, I:11-II:C, II:10-III:C; N-terminus assumed), the figures for the minimal inhibitory concentration (MIC) in the series with S.epidermidis ATCC 14990, with S.aureus USA 300 and against S.aureus 3851 were 0.4 µM (≈ 1.87 µg/mL), 1.5 µM (≈ 7.02 µg/mL) and 0.7 µM (≈ 3.28 µg/mL), respectively. In series [1] (300 µg peptide + 3 µg P. aeruginosa elastase in 300 µl 20 mM Tris-HCl, HPLC and MALDI MS read-out), the “time of resistance to degradation by elastase” value is given as not below 24 h. Moreover, the “stability to elastase (in words)” value in series [1] (setting [5]) is on record as “highly stable”. For the same molecule, the “time of stability / degradation on incubation with aureolysin” value in series [2] is recorded as not below 24 h. The “peptide concentration giving maximum calcein release” value in series [3] is given as “greater than 10 µM”. In series [4], the “Minimum bactericidal concentration on biofilm (MBCb)” value is on record as 6 µM (≈ 28.1 µg/mL).
